According to patent publication US4594238A (Regents of University of Minnesota, priority 1984, dated 1986):
Where two headings read alike, the source gives them in different places.

Tests used:
[1] = mannitol diuresis coupled with intravenous prehydration, dogs; cited from earlier work
[2] = mannitol diuresis coupled with intravenous prehydration, humans; cited from earlier work
[3] = Platinum excretion kinetics / platinum accumulation after DDP; type: in vivo; settings: four rats
Procedure: Platinum excretion kinetics were measured in four animals by measuring urinary platinum levels every 30 minutes for 4 hours and then every 2 hours for an additional 12 hours. Urinary platinum concentration declined to <10% of maximal concentration within 1.5 hours and >95% of the platinum excreted by the kidneys had appeared in the urine by this time.

Rat mammary tumor 13762 = test: Comparative tumor response to DDP with and without NaDDTC rescue, Example 2; type: in vivo, Female F344 (Fischer) rats
Procedure: Female F344 (Fischer) rates, initial weight 100-150 g, were obtained from the Charles River Breeding Laboratory, Wilmington, MA. They were housed in methacrylate cages and given Purina rat chow and water ad libitum for at least one week. Lean weight of the rats were 150 g at the onset of experiments unless otherwise noted.
Mammary Tumor 13762 was obtained in the form of an implanted tumor in a female F344 rat. All intravenous injections were carried out under brief ether anesthesia.
Tumor inoculation was carried out as follows: two rats bearing tumors having a mean diameter of 2.5-3.5 cm were sacrificed using ether anesthesia. The tumors were excised immediately, finely minced, combined, and resuspended in 20-40 ml of normal saline. This suspension was filtered through a gauze pad to remove coarse pieces of tissue and the resulting suspension inoculated subcutaneously (0.2-0.5 ml/injection) into the left flank of each rat.

[4] = after DDP; cited from earlier work

| Structure (SMILES) | Amelioration of acute platinum toxicity [1] | Amelioration of acute platinum toxicity [2] | Fraction of kidney-excreted platinum in the urine by […] [3] | Urinary platinum concentration within […], of maximal concentration [3] | Other (non-relapsed) rats through day 50 (Rat mammary tumor 13762; DDP 2 mg/kg i.v., control, n=8) | Rats with relapse between days 25 and 30 (Rat mammary tumor 13762; DDP 2 mg/kg i.v., control, n=8) | Rats bearing tumors at day 24 (Rat mammary tumor 13762; DDP 2 mg/kg without rescue) | Tumor-free rats at day 24 (Rat mammary tumor 13762; DDP 2 mg/kg without rescue) | Mean tumor diameter at day 30 (Rat mammary tumor 13762; DDP 2 mg/kg without rescue, six rats) | Mean minimum tumor diameter (Rat mammary tumor 13762; DDP 2 mg/kg without rescue, six tumor-bearing rats, day 24) | Tumor-free rats by day 28 (Rat mammary tumor 13762; DDP 8 mg/kg, unrescued) | Animals with spontaneous relapse at the original site (Rat mammary tumor 13762; after DDP) | Time of spontaneous relapse after DDP administration (Rat mammary tumor 13762; rat, in vivo) | Time of maximal platinum accumulation (renal tubule) [4] |
| --- | --- | --- | --- | --- | --- | --- | --- | --- | --- | --- | --- | --- | --- | --- |
| OC[C@@H](O)[C@@H](O)[C@H](O)[C@H](O)CO [mannitol] | ameliorate acute toxicity | ameliorate acute toxicity | – | – | – | – | – | – | – | – | – | – | – | – |
| N.N.[Cl][Pt][Cl] [DDP, cis-dichlorodiammineplatinum(II), reference compound] | – | – | > 95% | < 10% | essentially free of tumor through day 50 | 2/8 | 6/8 | 2/8 | 2.4 cm | 1.6 cm | 3/8 | 25-75% | approximately 15 days | 30 to 60 min |
